What all share (type): functional
Assay [1] concerns Saccharomyces cerevisiae. Description: MMV: Growth assays were conducted using the prototrophic S. cerevisiae strain JHY222. Each MMV compound (0.1 mM) was tested in minimal media containing ethanol and glycerol as carbon sources (Yeast Nitrogen Base, Ethanol, Glycerol; YNBEG). The growth rate in the presence of each MMV compound was calculated as follows: (i) the first 10 OD readings were averaged and subtracted from all OD readings of the corresponding curve to set the baseline of the growth curve to zero, and (ii) the area under the curve (AUC) was then calculated as the sum of all OD readings. […] A relative growth value was calculated as follows: AUC(DRUG) - AUC(DMSO)/AUC(DMSO); where AUC(DMSO) represents growth measured in a DMSO control well that was on the same microtiter plate of the drug-treated culture.

For assay [2], the system named is Saccharomyces cerevisiae. Description: (§1) MMV: Growth assays were conducted using the prototrophic S. cerevisiae strain JHY222. Each MMV compound (0.1 mM) was tested in rich media containing dextrose as a carbon source (Yeast Extract, Peptone, Dextrose; YPD). The growth rate in the presence of each MMV compound was calculated as follows: (i) the first 10 OD readings were averaged and subtracted from all OD readings of the corresponding curve to set the baseline of the growth curve to zero, and (ii) the area under the curve (AUC) was then calculated as the sum of all OD readings. […] A relative growth value was calculated as follows: AUC(DRUG) - AUC(DMSO)/AUC(DMSO); where AUC(DMSO) represents growth measured in a DMSO control well that was on the same microtiter plate of the drug-treated culture.

For assay [3], the system named is Saccharomyces cerevisiae. The assay is described as §1, with “minimal” for “rich”, “Nitrogen Base,” for “Extract, Peptone,”, “YNBD).” for “YPD).”.

Molecules are shown by their SMILES.

Consider `COc1ccc(C(=O)NC(c2ccccc2Cl)c2cc(Cl)c3cccnc3c2O)cc1` (configuration not stated), for which the “Relative Growth” value is -1.0144 in the assay with Saccharomyces cerevisiae [1], -0.3676 in the assay with Saccharomyces cerevisiae [2] and -1.0012 in the assay on Saccharomyces cerevisiae [3].
The corresponding values for `COc1ccc(C=C2SC(=N)N(c3ccccc3OC)C2=O)cc1` are -0.0639, -0.083 and -0.0085.
For the compound `COc1ccccc1CNC(=O)CCn1c(=O)[nH]c2ccccc2c1=O`, the “Relative Growth” value in the assay with Saccharomyces cerevisiae [1] was 0.058; in the assay with Saccharomyces cerevisiae [2], -0.0038; in the assay on Saccharomyces cerevisiae [3] it was 0.0763.
For `CCOc1ccc(-c2nonc2NC(=O)c2cccc(C)c2)cc1OCC`, the “Relative Growth” value in the assay on Saccharomyces cerevisiae [1] is given as -0.1269; in the assay with Saccharomyces cerevisiae [2], 0.0084; with Saccharomyces cerevisiae [3], 0.0895.
For `Cc1cccc(-n2ncc3c(O)nc(-n4nc(C)cc4NC(=O)c4cc5ccccc5o4)nc32)c1`, the “Relative Growth” value in the assay with Saccharomyces cerevisiae [1] is reported as -0.0822; in the assay with Saccharomyces cerevisiae [2], -0.0284; in the assay on Saccharomyces cerevisiae [3], -0.2202.
With `C[n+]1c2ccccc2nc2ccc(NCCO)cc21`, the figures for the “Relative Growth” value in the assay on Saccharomyces cerevisiae [1], with Saccharomyces cerevisiae [2] and with Saccharomyces cerevisiae [3] were -0.0436, -0.1972 and 0.0053, respectively.
Take `CCCCN(CCCC)S(=O)(=O)c1ccc(NC(=O)c2ccco2)cc1`: the “Relative Growth” value is recorded as -0.9939 with Saccharomyces cerevisiae [1], -0.9715 with Saccharomyces cerevisiae [2] and -0.9663 in the assay on Saccharomyces cerevisiae [3].
Taken in the same sequence, the figures for `Cl.Cn1c(=O)n(C)c2cc(CNCCNc3ccnc4cc(Cl)ccc34)ccc21` were 0.2785, -0.0297 and 0.301.
Regarding `CCOc1cc2c(cc1OCC)C(c1cc(Cl)ccc1O)NCC2` (configuration not stated), the “Relative Growth” value is -0.522 in the assay with Saccharomyces cerevisiae [1], -0.0098 in the assay on Saccharomyces cerevisiae [2] and 0.0319 in the assay with Saccharomyces cerevisiae [3].
As for `CCOc1ccccc1NC(=O)CN1CCN(C(=O)c2ccco2)CC1`, the “Relative Growth” value is on record as -0.0386 with Saccharomyces cerevisiae [1], -0.0315 with Saccharomyces cerevisiae [2] and 0.1567 in the assay with Saccharomyces cerevisiae [3].
Regarding `CN(C)c1ccc(-c2nc3cc(N)ccc3[nH]2)cc1`, the figures for the “Relative Growth” value in the assay with Saccharomyces cerevisiae [1], in the assay with Saccharomyces cerevisiae [2] and in the assay with Saccharomyces cerevisiae [3] were 0.1829, 0.2129 and -0.0068, respectively.
Taken in the same sequence, the figures for `Br.Cc1ccc(C)c(-c2csc(Nc3ccc(C)c(C)c3)n2)c1` were -0.3216, -0.11 and -0.0757.
Turning to `Cc1ccc(Cl)cc1N1CCN(CCCNC(=O)C2CCN(c3nc4ccccc4[nH]3)CC2)CC1`, the “Relative Growth” value in the assay with Saccharomyces cerevisiae [1] is listed as 0.0403; in the assay on Saccharomyces cerevisiae [2], -0.0122; in the assay on Saccharomyces cerevisiae [3] it was 0.0248.
As for `CC(C)(C)c1ccc(O)c(CNC2CCCCC2)c1`, the “Relative Growth” value in the assay with Saccharomyces cerevisiae [1] is -0.0737; in the assay with Saccharomyces cerevisiae [2], -0.013; in the assay with Saccharomyces cerevisiae [3] it was 0.1031.
`Cc1ccc(-c2cc3c(nn2)-c2ccccc2C3=O)cc1`: the entries for the “Relative Growth” value in the assay with Saccharomyces cerevisiae [1], in the assay on Saccharomyces cerevisiae [2] and in the assay on Saccharomyces cerevisiae [3] were -0.6667, -0.0004 and -0.1641, respectively.
The corresponding values for `Cc1ccc(NC(=O)Nc2cccc(Cl)c2)cc1F` are 0.0189, -0.0033 and 0.0155.
Taken in the same sequence, the figures for `Br.CCn1c2c(c(=N)c3c1CCC3)CCCC2` were -0.0042, -0.135 and -0.0127.
Take `COc1ccc(C(C)=O)cc1N1C(=O)C2C(C1=O)C1(c3ccccc3)C(=O)C2(c2ccccc2)C(c2ccc(C)cc2)=C1c1ccc(C)cc1` (configuration not stated): the “Relative Growth” value in the assay on Saccharomyces cerevisiae [1] was 0.0688; in the assay with Saccharomyces cerevisiae [2] it was -0.992; in the assay on Saccharomyces cerevisiae [3] it was -0.0144.
With `O=C1c2ccc3c4c(ccc(c24)C(=O)N1CCCCO)C(=O)N(CCCCO)C3=O`, the “Relative Growth” value is recorded as -1.0287 in the assay on Saccharomyces cerevisiae [1], -0.136 with Saccharomyces cerevisiae [2] and -0.7093 in the assay on Saccharomyces cerevisiae [3].

The values above are taken from ChEMBL document CHEMBL3301546, “MMV Malaria Box yeast growth screening”.
